Active and inactive are the calls of the source.
Key:
[1] = molecular target: T1, Mitochondrial peptide methionine sulfoxide reductase (Bos taurus, UniProt P54149); assay type: functional;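 further: absorbance read-out, biochemical high-throughput dose-response screen for MsrA inhibitors, confirmatory; recombinant bovine MsrA coupled to E. coli TrxB with NADPH and selenocystamine; potency is for inhibitors of MsrA activity on DMSO substrate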
T1 sequence (P54149 whole entry): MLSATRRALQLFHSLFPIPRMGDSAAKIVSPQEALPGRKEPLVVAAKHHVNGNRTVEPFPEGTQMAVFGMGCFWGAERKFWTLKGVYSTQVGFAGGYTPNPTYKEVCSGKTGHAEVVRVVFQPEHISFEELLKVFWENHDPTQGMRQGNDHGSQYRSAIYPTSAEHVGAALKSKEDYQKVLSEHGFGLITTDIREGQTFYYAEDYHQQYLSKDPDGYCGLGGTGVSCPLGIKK

Aminopeptidase N = molecular target: T2, Aminopeptidase N (Plasmodium falciparum FcB1/Columbia, UniProt O96935); test: malaria alanyl aminopeptidase activity blockers – biochemical, fluorogenic H-Leu-NHMec substrate, 1536-well (AID 1445); parameters: species or system Plasmodium falciparum 3D7, 3D7
T2 sequence (O96935 whole entry): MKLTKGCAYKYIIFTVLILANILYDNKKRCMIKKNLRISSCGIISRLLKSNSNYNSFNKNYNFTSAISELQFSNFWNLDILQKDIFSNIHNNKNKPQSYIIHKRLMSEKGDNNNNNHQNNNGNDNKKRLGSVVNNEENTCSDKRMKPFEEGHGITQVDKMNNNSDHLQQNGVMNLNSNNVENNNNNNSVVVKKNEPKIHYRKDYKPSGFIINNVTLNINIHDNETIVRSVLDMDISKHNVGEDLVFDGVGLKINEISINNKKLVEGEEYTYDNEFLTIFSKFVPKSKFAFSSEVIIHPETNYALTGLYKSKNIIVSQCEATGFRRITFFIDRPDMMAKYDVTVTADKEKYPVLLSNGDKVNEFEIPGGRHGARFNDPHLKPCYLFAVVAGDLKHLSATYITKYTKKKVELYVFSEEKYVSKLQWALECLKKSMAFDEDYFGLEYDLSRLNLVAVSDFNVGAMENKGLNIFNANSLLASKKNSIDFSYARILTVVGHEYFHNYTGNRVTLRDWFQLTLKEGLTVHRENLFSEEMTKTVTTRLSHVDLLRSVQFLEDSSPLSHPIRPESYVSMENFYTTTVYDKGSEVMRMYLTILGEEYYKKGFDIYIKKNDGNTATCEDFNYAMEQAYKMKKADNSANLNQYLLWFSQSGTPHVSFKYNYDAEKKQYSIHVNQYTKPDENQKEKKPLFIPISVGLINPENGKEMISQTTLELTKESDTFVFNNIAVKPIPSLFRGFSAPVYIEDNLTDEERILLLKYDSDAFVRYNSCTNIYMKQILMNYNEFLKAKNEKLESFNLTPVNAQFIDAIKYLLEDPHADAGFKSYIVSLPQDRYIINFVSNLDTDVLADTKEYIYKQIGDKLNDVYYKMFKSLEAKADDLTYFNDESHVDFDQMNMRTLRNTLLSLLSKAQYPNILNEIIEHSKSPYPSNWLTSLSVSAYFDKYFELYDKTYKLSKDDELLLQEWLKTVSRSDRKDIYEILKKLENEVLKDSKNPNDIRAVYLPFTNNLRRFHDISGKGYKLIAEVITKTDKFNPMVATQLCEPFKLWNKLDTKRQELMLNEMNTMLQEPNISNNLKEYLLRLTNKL

Caspase-3 = molecular target: T3, Caspase-3 (Homo sapiens, UniProt P42574); assay type: functional;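 further: Dose-response selectivity test against caspase-3 for candidate inhibitors of sentrin-specific proteases (SENPs)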
T3 sequence (P42574 whole entry): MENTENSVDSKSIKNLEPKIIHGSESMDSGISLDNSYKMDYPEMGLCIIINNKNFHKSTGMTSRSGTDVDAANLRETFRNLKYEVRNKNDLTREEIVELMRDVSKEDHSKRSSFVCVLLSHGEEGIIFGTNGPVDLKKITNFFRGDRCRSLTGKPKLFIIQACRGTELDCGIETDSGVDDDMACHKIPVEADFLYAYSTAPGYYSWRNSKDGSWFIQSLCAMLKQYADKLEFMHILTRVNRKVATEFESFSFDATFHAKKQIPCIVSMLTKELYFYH

[2] = molecular target: T4, Sentrin-specific protease 7 (Homo sapiens, UniProt Q9BQF6); assay type: functional;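 further: Luminescence-based dose-response confirmation of ultra-high-throughput screening hits, measuring inhibition of SENP7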
T4 sequence (Q9BQF6 whole entry): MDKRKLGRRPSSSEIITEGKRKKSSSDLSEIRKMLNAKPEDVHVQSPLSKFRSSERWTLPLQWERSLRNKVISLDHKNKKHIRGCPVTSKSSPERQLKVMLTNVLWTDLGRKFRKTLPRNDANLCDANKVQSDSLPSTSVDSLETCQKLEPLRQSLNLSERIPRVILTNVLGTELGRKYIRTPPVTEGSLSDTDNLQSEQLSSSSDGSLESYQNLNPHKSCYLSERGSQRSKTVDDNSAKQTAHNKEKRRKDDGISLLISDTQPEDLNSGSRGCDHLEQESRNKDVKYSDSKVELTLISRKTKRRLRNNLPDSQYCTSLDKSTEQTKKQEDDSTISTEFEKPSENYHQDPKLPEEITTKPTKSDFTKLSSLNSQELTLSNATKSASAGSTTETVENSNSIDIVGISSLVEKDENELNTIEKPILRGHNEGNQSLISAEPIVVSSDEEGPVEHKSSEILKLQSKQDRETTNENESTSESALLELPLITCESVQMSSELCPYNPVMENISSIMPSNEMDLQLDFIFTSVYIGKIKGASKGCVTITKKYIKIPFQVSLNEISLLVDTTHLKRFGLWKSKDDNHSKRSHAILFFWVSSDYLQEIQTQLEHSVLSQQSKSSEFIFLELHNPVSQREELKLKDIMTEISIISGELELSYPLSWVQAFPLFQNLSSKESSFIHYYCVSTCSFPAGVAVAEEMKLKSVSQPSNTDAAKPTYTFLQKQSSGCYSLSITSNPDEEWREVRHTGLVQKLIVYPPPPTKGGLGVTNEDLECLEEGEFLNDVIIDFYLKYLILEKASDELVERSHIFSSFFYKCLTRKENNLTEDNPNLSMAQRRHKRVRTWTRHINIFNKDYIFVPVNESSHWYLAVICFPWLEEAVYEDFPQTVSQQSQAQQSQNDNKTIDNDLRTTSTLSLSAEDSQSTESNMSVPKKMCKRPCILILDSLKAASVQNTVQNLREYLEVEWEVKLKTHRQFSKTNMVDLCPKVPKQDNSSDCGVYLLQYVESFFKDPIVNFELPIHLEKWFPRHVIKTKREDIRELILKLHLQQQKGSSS

[3] = molecular target: T5, Sentrin-specific protease 8 (Homo sapiens, UniProt Q96LD8); assay type: functional;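 further: luminescence read-out of SENP8 inhibition, dose-response confirmation following an ultra-high-throughput screen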
T5 sequence (Q96LD8 whole entry): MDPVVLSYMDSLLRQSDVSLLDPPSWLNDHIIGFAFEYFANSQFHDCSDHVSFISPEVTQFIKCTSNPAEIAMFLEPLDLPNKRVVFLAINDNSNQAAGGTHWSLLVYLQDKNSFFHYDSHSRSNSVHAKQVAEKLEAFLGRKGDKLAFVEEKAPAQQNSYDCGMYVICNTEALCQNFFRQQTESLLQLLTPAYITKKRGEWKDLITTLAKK

[4] = molecular target: T6, Sentrin-specific protease 6 (Homo sapiens, UniProt Q9GZR1); assay type: functional;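 further: Luminescence-based dose-response confirmatory assay of SENP6 inhibition, following up an ultra-high-throughput screen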
T6 sequence (Q9GZR1 whole entry): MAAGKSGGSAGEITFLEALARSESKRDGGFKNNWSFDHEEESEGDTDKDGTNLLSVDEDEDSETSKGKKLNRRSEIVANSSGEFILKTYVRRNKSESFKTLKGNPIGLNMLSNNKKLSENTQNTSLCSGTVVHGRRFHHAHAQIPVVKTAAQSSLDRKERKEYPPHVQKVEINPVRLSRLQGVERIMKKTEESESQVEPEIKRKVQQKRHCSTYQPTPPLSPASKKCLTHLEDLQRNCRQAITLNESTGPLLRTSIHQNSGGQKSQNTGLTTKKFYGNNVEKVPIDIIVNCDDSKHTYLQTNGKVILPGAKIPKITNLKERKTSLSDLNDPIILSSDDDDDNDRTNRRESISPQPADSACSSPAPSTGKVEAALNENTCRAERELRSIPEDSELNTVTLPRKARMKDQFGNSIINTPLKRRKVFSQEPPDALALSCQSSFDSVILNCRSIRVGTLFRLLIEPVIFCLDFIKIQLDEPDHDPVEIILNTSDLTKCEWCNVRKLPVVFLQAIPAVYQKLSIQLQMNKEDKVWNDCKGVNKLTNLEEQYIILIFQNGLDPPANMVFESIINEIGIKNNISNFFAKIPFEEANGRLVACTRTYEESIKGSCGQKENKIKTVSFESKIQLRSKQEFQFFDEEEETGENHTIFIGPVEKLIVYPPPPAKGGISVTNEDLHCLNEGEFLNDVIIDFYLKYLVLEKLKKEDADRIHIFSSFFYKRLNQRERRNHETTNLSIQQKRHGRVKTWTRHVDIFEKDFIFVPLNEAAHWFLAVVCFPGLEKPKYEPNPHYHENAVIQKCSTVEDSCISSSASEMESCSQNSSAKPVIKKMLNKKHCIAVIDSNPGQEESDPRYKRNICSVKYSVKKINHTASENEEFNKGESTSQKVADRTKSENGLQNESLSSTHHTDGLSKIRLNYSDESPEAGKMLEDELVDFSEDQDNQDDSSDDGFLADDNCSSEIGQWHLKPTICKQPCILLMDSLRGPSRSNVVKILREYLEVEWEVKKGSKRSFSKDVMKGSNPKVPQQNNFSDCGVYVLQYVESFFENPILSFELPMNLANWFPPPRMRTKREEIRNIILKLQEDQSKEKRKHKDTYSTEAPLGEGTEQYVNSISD

HEK293 = test: EBV LMP1 TES2 canonical NF-kB signalling blockers – cell-based, HEK293, luciferase, cherry-pick, dose response (AID 588343); assay type: functional, Homo sapiens
[5] = molecular target: T7, Latent membrane protein 1 (Human herpesvirus 4 (strain B95-8), UniProt P03230); test: LMP1 TES1 pathway selectivity over dsRED control – imaging, HEK293T, dual-color eGFP/dsRED, cherry-picks, selectivity assay for LMP1 NF-kB inhibitor project, dose response (AID 588398); assay type: functional, cell-based
T7 sequence (P03230 whole entry): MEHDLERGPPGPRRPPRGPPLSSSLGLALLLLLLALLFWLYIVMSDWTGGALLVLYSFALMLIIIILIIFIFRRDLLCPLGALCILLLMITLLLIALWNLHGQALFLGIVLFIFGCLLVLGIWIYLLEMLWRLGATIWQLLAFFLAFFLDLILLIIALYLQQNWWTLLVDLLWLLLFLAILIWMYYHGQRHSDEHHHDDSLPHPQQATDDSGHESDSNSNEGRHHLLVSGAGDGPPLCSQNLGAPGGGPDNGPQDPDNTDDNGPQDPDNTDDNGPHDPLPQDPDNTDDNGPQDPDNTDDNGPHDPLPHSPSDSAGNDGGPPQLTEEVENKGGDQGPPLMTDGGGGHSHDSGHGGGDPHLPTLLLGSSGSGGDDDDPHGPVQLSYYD

[6] = Luminescence Cell-Based Dose Response HTS to Identify Inhibitors of 5'UTR Stem-Loop Driven Prion Protein mRNA Translation in H4 Neuroglioblastoma Cells. [Related pubchem assays: 1827 (Project Summary), 1813 (Primary HTS)]; assay type: functional
[7] = alpha-synuclein stem-loop luciferase translation blockers – H4 neuroglioma cells, luminescence, confirmation (AID 1988); assay type: functional, cell-based
[8] = luciferase reporter signal suppression in cells – H4 neuroglioma cells, luminescence, dose response (AID 1990); assay type: functional, cell-based
Phospholipase A2 = Phospholipase A2 (Homo sapiens, UniProt P04054); assay type: functional;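 further: confirmatory dose-response counterscreen on phospholipase A2, testing hits that came from an ultra-high-throughput screen for ATG4B inhibitors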
Phospholipase A2, sequence (P04054 whole entry): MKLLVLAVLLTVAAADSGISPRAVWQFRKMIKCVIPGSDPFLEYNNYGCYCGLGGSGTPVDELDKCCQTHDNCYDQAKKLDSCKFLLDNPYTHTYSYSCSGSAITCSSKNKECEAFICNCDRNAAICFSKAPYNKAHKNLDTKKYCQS

Interleukin-8 [9] = molecular target: T8, Interleukin-8 (Homo sapiens, UniProt P10145); test: Dose Response confirmation of uHTS small molecule hits for cystic fibrosis induced NFkb Inhibitors in a TNFa-induced IL8 counterscreen.; assay type: functional; details: read-out: IC50_Mean
T8 sequence (P10145 whole entry): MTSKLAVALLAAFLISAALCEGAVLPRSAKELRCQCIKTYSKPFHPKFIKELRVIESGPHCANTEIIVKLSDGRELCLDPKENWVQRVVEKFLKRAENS

Interleukin-8 [10] = molecular target: T8, Interleukin-8; test: Dose Response confirmation of uHTS small molecule hits for cystic fibrosis induced NFkb Inhibitors in a PAF-induced IL8 counterscreen.; assay type: functional; details: read-out: IC50_Mean

## CCOP(=O)(Nc1ccc2c(c1)C(=NNC(N)=S)c1ccccc1-2)OCC
[1]
  IC50: 95.9 µM (inactive)

## COCc1cc(C)n(CC(=O)N/N=C/c2ccc(-c3ccc(Cl)c(C(=O)O)c3)o2)c(=O)c1C#N
Aminopeptidase N
  IC50: 24.7 µM (active)
[1]
  IC50: 99.4 µM (inactive)

## Cc1ccccc1-c1nc2cc(Cl)ccc2o1
Caspase-3
  IC50: 12.9 µM (active)
[2]
  IC50: 4.69 µM (active)
[3]
  IC50: 79.7 µM (active)
[4]
  IC50: 13.7 µM (active)

## O=Cc1cc(OCc2ccccc2)ccc1[B-](F)(F)F
HEK293; Homo sapiens, HEK293
  AC50: 2.86 µM (active)
[5]
  AC50: 1.14 µM (active)

## c1ccc(-c2cn3c4c(sc3n2)CCCC4)cc1
HEK293; hek293
  AC50: 2.07 µM (active)
[5]
  AC50: 47.1 µM (active)
[6]
  EC50: 6.75 µM (active)
[7]
  EC50: 6.38 µM (active)

## N#CC1=C(N)N2C(=C(C#N)C1c1cccc(Br)c1)Nc1ccccc12 (stereo not given)
HEK293; Homo sapiens, HEK293
  AC50: 3.62 µM (active)
[5]
  AC50: 54 µM (active)
[6]
  EC50: 14.6 µM (active)
[8]
  EC50: 11.3 µM (active)
[7]
  EC50: 12.9 µM (active)

## CC(C)(C)C(=O)CSc1ncnc2sc3c(c12)CCC3
Phospholipase A2
  IC50: 2.59 µM (active)

## O=C1C=C(NC2=CC3OC(c4ccccc4)OCC3OC2=O)CCC1 (stereo not given)
Interleukin-8 [9]
  IC50: 1.07 µM (active)
Interleukin-8 [10]
  IC50: 1.5 µM (active)

## CC(C)C(=O)Nc1ccc2nn(-c3ccccc3)nc2c1
Caspase-3
  IC50: 26.7 µM (active)
[2]
  IC50: 8.73 µM (active)
[3]
  IC50: > 100 µM (inactive)
[4]
  IC50: > 100 µM (inactive)
